Tests used:
[1] = test system: human TERT expression (hTERT mRNA); assay: Quantitative real-time RT-PCR of hTERT mRNA expression (Ct, transcripts) in compound-treated cells; format: cell-based
Method in brief: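 Read-out is cycle threshold, the cycle at which probe fluorescence released by Taq 5′-nuclease activity crosses a set level; Ct falls as hTERT mRNA rises. cDNA of treated and untreated cells was compared, with starting transcripts quantified against a known-cDNA standard curve.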

viable cells in culture = assay: Cell viability assay (CellTiter-Glo Luminescent Cell Viability Assay, ATP quantitation, percent of vehicle control)

Row | SMILES | Average Number of hTERT Transcripts [1] | Average Cell Viability after 24 Hours (% DMSO) (viable cells in culture)
1 | c1ccc(-c2nc3cc(Oc4ccc5[nH]c(-c6ccccn6)nc5c4)ccc3[nH]2)nc1 [compound 1476] | 25.18 | 86.51 % DMSO
2 | Cc1ccc(OCC(=O)N/N=C/c2c(C)nn(-c3ccccc3)c2O)c(C)c1 [compound 1483] | 5.19 | 81.33 % DMSO
3 | CCCC1=NN(c2ccc(C(=O)OCC)cc2)C(=O)C1 [compound 1484] | 16.52 | 62.51 % DMSO
4 | Cc1cc(OCC(=O)N/N=C/c2c(C)nn(-c3ccccc3)c2O)ccc1Cl [compound 1485] | 48.25 | 112.70 % DMSO
5 | CCCc1cc(=O)n2ncc(-c3cccc(Br)c3)c2[nH]1 [compound 1486] | 51.80 | 73.20 % DMSO
6 | Cc1ccc(-c2cc(C(=O)NCCc3ccc(S(N)(=O)=O)cc3)no2)cc1 [compound 1487] | 1.93 | 95.31 % DMSO
7 | O=C(CSc1nnc(-c2ccncc2)o1)N1CCN(c2ccccc2F)CC1 [compound 1488] | 3.19 | 86.72 % DMSO
8 | NCc1ccc(CNC(=O)c2cc(-c3cccs3)on2)cc1 [compound 1489] | 3.77 | 107.24 % DMSO
9 | O=C(O)CCC(=O)Nc1nc(-c2ccccn2)cs1 [compound 1490] | 3.91 | 111.59 % DMSO
10 | O=C(NCCSCc1ccccc1)c1cc(-c2cccs2)on1 [compound 1491] | 5.09 | 102.96 % DMSO
11 | O=C(CNC(=O)c1cc(-c2cccs2)on1)c1ccccc1 [compound 1492] | 6.45 | 91.36 % DMSO
12 | O=C(CSc1nnc(-c2ccncc2)o1)NCc1ccccc1Br [compound 1493] | 6.84 | 100.09 % DMSO
13 | COc1ccc(CCNC(=O)c2cc(-c3cccs3)on2)cc1 [compound 1494] | 9.18 | 110.08 % DMSO
14 | Cc1ccc(-c2cc(C(=O)Nc3nc4ccc(S(C)(=O)=O)cc4s3)no2)cc1 [compound 1495] | 10.81 | 85.84 % DMSO
15 | O=C(Nc1nc(-c2ccccn2)cs1)c1ccc(-c2nc3ccccc3s2)s1 [compound 1496] | 11.43 | 12.76 % DMSO
16 | COc1cccc(CCNC(=O)c2cc(-c3cccs3)on2)c1 [compound 1497] | 14.74 | 92.73 % DMSO
17 | O=C(NCCc1c[nH]c2c(OCc3ccccc3)cccc12)c1cc(-c2cccs2)on1 [compound 1498] | 16.50 | 94.63 % DMSO
18 | O=C(NCc1nccs1)c1cc(-c2cccs2)on1 [compound 1499] | 17.01 | 119.54 % DMSO
19 | CN1CCN(c2ccc(CNC(=O)c3cc(-c4cccs4)on3)cc2)CC1 [compound 1500] | 17.14 | 110.86 % DMSO
20 | COc1cc(CCNC(=O)c2cc(-c3cccs3)on2)cc(OC)c1 [compound 1501] | 24.13 | 99.31 % DMSO
21 | COc1ccc(CCNC(=O)c2cc(-c3cccs3)on2)cc1O [compound 1502] | 28.74 | 91.65 % DMSO
22 | Cc1cc(CNC(=O)c2cc(-c3cccs3)on2)no1 [compound 1503] | 28.94 | 108.11 % DMSO
23 | CN(C)S(=O)(=O)c1ccc(C(=O)Nc2nc(-c3ccccn3)cs2)cc1 [compound 1504] | 40.27 | 76.43 % DMSO
24 | O=C(Nc1nc(-c2ccccn2)cs1)c1cc(Cl)sc1Cl [compound 1505] | 43.28 | 70.89 % DMSO
25 | O=C(NCCN1CCOCC1)c1cc(-c2ccccc2)on1 [compound 1506] | 52.39 | 84.31 % DMSO

Row | SMILES | Average Number of hTERT Transcripts [1] | Average Cell Viability after 24 Hours (% DMSO) (viable cells in culture)
26 | CCCCOCCCNC(=O)c1cc(-c2cccs2)on1 [compound 1507] | 58.76 | 102.58 % DMSO
27 | O=C(NCCOc1ccccc1)c1cc(-c2cccs2)on1 [compound 1508] | 59.45 | 94.22 % DMSO
28 | O=C(NCCN1CCNC1=O)c1cc(-c2cccs2)on1 [compound 1509] | 72.08 | 73.34 % DMSO
29 | CN(CC1CCCO1)S(=O)(=O)c1ccc(C(=O)Nc2nc(-c3ccccn3)cs2)cc1 (centres unmarked) [compound 1510] | 76.03 | 83.99 % DMSO
30 | CC(C)CCNC(=O)c1cc(-c2cccs2)on1 [compound 1511] | 88.76 | 75.76 % DMSO
31 | Cc1ccc(S(=O)(=O)CC(=O)Nc2ncc(-c3ccccn3)s2)cc1 [compound 1512] | 102.66 | 81.39 % DMSO
32 | Cc1ccn(CCCNC(=O)c2cc(-c3cccs3)on2)n1 [compound 1513] | 102.76 | 82.67 % DMSO
33 | CN1CCN(CCCNC(=O)c2cc(-c3cccs3)on2)CC1 [compound 1514] | 102.98 | 98.72 % DMSO
34 | CN(C)CCCCNC(=O)c1cc(-c2cccs2)on1 [compound 1515] | 113.63 | 96.89 % DMSO
35 | Cn1c(-c2nnc(SCC(=O)NCc3nc4ccccc4n3C)o2)cc2ccccc21 [compound 1516] | 127.39 | 87.09 % DMSO
36 | CSCCNC(=O)c1cc(-c2cccs2)on1 [compound 1517] | 140.89 | 112.40 % DMSO
37 | O=C(NCCCN1CCCC1=O)c1cc(-c2cccs2)on1 [compound 1518] | 302.69 | 104.12 % DMSO
38 | Cc1cnc(CNC(=O)c2cc(-c3cccs3)on2)cn1 [compound 1519] | 303.81 | 110.34 % DMSO
39 | COc1cc(CCNC(=O)c2cc(-c3cccs3)on2)ccc1O [compound 1520] | 322.93 | 98.51 % DMSO
40 | O=C(NCCc1ccccn1)c1cc(-c2cccs2)on1 [compound 1521] | 329.90 | 106.64 % DMSO
41 | O=C(NCCCn1ccnc1)c1cc(-c2ccccc2)on1 [compound 1522] | 345.10 | 80.72 % DMSO
42 | O=C(NCCc1ccncc1)c1cc(-c2cccs2)on1 [compound 1524] | 562.51 | 103.34 % DMSO
43 | O=C(OCc1ccc(Cl)cc1Cl)c1ccc(-c2nnc(-c3ccccc3)o2)cc1 [compound 1525] | 7.73 | 83.30 % DMSO
44 | CCOc1cccc(/C=N/NC(=O)CNc2ccc(C)cc2)c1O [compound 1526] | 8.14 | 79.56 % DMSO
45 | O=C(N/N=C/c1c(O)ccc2ccccc12)c1ccc(CO)nc1 [compound 1527] | 15.53 | 89.01 % DMSO
46 | CCN(CC)c1ccc(/C=N/NC(=O)C2CC2c2ccccc2)c(O)c1 (centres unmarked) [compound 1528] | 24.18 | 69.89 % DMSO
47 | COc1cccc(/C=N/NC(=O)C2CC2c2ccccc2)c1O (centres unmarked) [compound 1529] | 29.94 | 102.67 % DMSO
48 | C/C(=N\NC(=O)c1ccccc1O)c1ccccc1O [compound 1530] | 30.46 | 96.99 % DMSO
49 | C/C(=N\NC(=O)c1c(O)ccc2ccccc12)c1ccccc1C(=O)O [compound 1531] | 32.70 | 110.91 % DMSO
